From paper PMC7947852, “Identification and Characterization of Chalcone Isomerase Genes Involved in Flavonoid Production in Dracaena cambodiana” (Frontiers in Plant Science, 2021)

Target: T1, DcCHI1 (Dracaena cambodiana, UniProt A0A8A5KFS9)
T1 construct: gene CHI1
T1 sequence (A0A8A5KFS9 1-219): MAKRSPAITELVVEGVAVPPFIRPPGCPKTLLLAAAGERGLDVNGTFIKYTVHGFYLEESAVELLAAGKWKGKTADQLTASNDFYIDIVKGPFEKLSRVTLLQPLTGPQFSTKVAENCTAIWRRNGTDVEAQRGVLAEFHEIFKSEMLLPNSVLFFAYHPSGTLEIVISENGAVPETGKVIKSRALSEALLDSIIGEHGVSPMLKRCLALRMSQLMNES
Assay: HPLC of reaction product
Type: biochemical
Settings: 100 mM Tris-HCl pH 7.6, 30 °C, 2 min; 5 µl of 5 mM substrate in 200 µl

| Compound | HPLC of reaction product |
| --- | --- |
| O=C1C[C@@H](c2ccc(O)cc2)Oc2cc(O)cc(O)c21 [naringenin] | recombinant DcCHI1 could catalyze the formation of naringenin with naringenin chalcone as the substrate |
| O=C(/C=C/c1ccc(O)cc1)c1c(O)cc(O)cc1O [naringenin chalcone] | recombinant DcCHI1 could catalyze the formation of naringenin with naringenin chalcone as the substrate |
